Reference: ChEMBL document CHEMBL1201862, “PubChem BioAssay data set” (2004)
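Tested at 5 concentrations; 48 h exposure; 96-well plates; endpoints linearly interpolated, else capped at highest concentration. Abbreviation: GI50, concentration required for 50% inhibition of growth.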 Active and inactive are the calls of the source. Cut-off read from the data, not from the text of the source: active = GI50 up to about 1.1 µM and inactive = higher.

Tests used:
Assay in all cases: DTP human tumour cell line panel, 48 h
[1] = test system: HCT-15
[2] = test system: DU-145
[3] = test system: A498
[4] = test system: MDA-N
[5] = test system: NCI-H23
[6] = test system: SK-MEL-28
[7] = test system: SNB-75
[8] = test system: SW-620
[9] = test system: ACHN
[10] = test system: UACC-62
[11] = test system: CAKI-1
[12] = test system: UACC-257
[13] = test system: MDA-MB-435
[14] = test system: NCI/ADR-RES
[15] = test system: SF-295
[16] = test system: OVCAR-4
[17] = test system: SR
[18] = test system: HT-29
[19] = test system: U-251
[20] = test system: Malme-3M

Cn1c(=O)c2c(nc3n(Cc4ccccc4)c(=O)c(Br)cn23)n(C)c1=O
GI50 [1]: > 100 µM | GI50 [2]: > 100 µM (inactive) | GI50 [3]: > 100 µM (inactive) | GI50 [4]: > 100 µM (inactive) | GI50 [5]: > 100 µM (inactive) | GI50 [6]: > 100 µM (inactive) | GI50 [7]: > 100 µM (inactive) | GI50 [8]: > 100 µM (inactive) | GI50 [9]: > 100 µM (inactive) | GI50 [10]: > 100 µM (inactive) | GI50 [11]: > 100 µM (inactive) | GI50 [12]: > 100 µM (inactive) | GI50 [13]: > 100 µM (inactive) | GI50 [14]: > 100 µM (inactive) | GI50 [15]: > 100 µM (inactive) | GI50 [16]: > 100 µM (inactive) | GI50 [17]: 1.71 µM (inactive) | GI50 [18]: > 100 µM (inactive) | GI50 [19]: > 100 µM (inactive)

N#Cc1c(O)c(/N=N/c2ccccc2F)c(=O)n2c1[nH]c1ccccc12
GI50 [1]: 37.2 µM | GI50 [2]: 42.4 µM (inactive) | GI50 [3]: 60.5 µM (inactive) | GI50 [4]: 22 µM (inactive) | GI50 [5]: 38.2 µM (inactive) | GI50 [6]: 29.4 µM (inactive) | GI50 [7]: 30.4 µM (inactive) | GI50 [8]: 63.2 µM (inactive) | GI50 [9]: 34 µM (inactive) | GI50 [10]: 20.6 µM (inactive) | GI50 [20]: 28.5 µM (inactive) | GI50 [12]: 33.9 µM (inactive) | GI50 [13]: 21.6 µM (inactive) | GI50 [14]: 50 µM (inactive) | GI50 [15]: 33 µM (inactive) | GI50 [16]: 39.3 µM (inactive) | GI50 [18]: 23.3 µM (inactive) | GI50 [19]: 32.7 µM (inactive)

COc1cc(OC)cc(-n2c(N)c(-c3nc4ccccc4n3C)c3ccc([N+](=O)[O-])cc3c2=O)c1
GI50 [1]: > 100 µM | GI50 [2]: > 100 µM (inactive) | GI50 [3]: > 100 µM (inactive) | GI50 [4]: > 100 µM (inactive) | GI50 [5]: > 100 µM (inactive) | GI50 [6]: > 100 µM (inactive) | GI50 [7]: 2.02 µM (inactive) | GI50 [8]: > 100 µM (inactive) | GI50 [9]: 83.4 µM (inactive) | GI50 [10]: > 100 µM (inactive) | GI50 [11]: > 100 µM (inactive) | GI50 [12]: > 100 µM (inactive) | GI50 [13]: > 100 µM (inactive) | GI50 [14]: 33.8 µM (inactive) | GI50 [16]: 28.2 µM (inactive) | GI50 [18]: > 100 µM (inactive) | GI50 [19]: 46.8 µM (inactive)

COc1nc2ncc([C@@H](OC(C)=O)[C@@H](COC(C)=O)OC(C)=O)nc2c(=O)[nH]1
GI50 [1]: > 100 µM | GI50 [2]: > 100 µM (inactive) | GI50 [3]: > 100 µM (inactive) | GI50 [4]: > 100 µM (inactive) | GI50 [6]: > 100 µM (inactive) | GI50 [8]: > 100 µM (inactive) | GI50 [9]: > 100 µM (inactive) | GI50 [10]: > 100 µM (inactive) | GI50 [20]: > 100 µM (inactive) | GI50 [11]: > 100 µM (inactive) | GI50 [12]: > 100 µM (inactive) | GI50 [13]: > 100 µM (inactive) | GI50 [14]: > 100 µM (inactive) | GI50 [15]: > 100 µM (inactive) | GI50 [16]: > 100 µM (inactive) | GI50 [18]: > 100 µM (inactive) | GI50 [19]: > 100 µM (inactive)

COc1ccc2[nH]c(C(=O)N3CC(CCl)c4ccc(N)cc43)cc2c1 (configuration not stated)
GI50 [1]: 0.287 µM | GI50 [2]: 0.0551 µM (active) | GI50 [3]: 0.0789 µM (active) | GI50 [4]: 0.144 µM (active) | GI50 [5]: 0.0726 µM (active) | GI50 [6]: 0.368 µM (active) | GI50 [7]: 0.178 µM (active) | GI50 [8]: 0.173 µM (active) | GI50 [9]: 0.0728 µM (active) | GI50 [10]: 0.141 µM (active) | GI50 [20]: 0.141 µM (active) | GI50 [11]: 0.0877 µM (active) | GI50 [12]: 0.241 µM (active) | GI50 [13]: 0.264 µM (active) | GI50 [14]: 0.0912 µM (active) | GI50 [15]: 0.201 µM (active) | GI50 [16]: 0.163 µM (active) | GI50 [18]: 0.151 µM (active) | GI50 [19]: 0.313 µM (active)

O=C(/C=C(\O)c1cc(-c2ccccc2)n(-c2ccccc2)n1)c1ccccc1
GI50 [1]: 1.48 µM | GI50 [2]: 3.61 µM (inactive) | GI50 [3]: > 100 µM (inactive) | GI50 [4]: 18.2 µM (inactive) | GI50 [5]: 9.71 µM (inactive) | GI50 [6]: 0.631 µM (active) | GI50 [8]: 4.62 µM (inactive) | GI50 [9]: 3.35 µM (inactive) | GI50 [10]: 2.99 µM (inactive) | GI50 [20]: 5.09 µM (inactive) | GI50 [11]: 3.13 µM (inactive) | GI50 [12]: 59.4 µM (inactive) | GI50 [13]: 3.78 µM (inactive) | GI50 [14]: 5.38 µM (inactive) | GI50 [15]: 8.17 µM (inactive) | GI50 [17]: 1.12 µM (active) | GI50 [18]: 3.58 µM (inactive) | GI50 [19]: 2.84 µM (inactive)

Cc1csc2nc(-c3ccc([N+](=O)[O-])cc3)c(/C=N/N=C(N)N)n12
GI50 [1]: 0.791 µM | GI50 [2]: 2.21 µM (inactive) | GI50 [3]: 1.82 µM (inactive) | GI50 [4]: 1.8 µM (inactive) | GI50 [5]: 1.64 µM (inactive) | GI50 [6]: 1.74 µM (inactive) | GI50 [7]: 1.58 µM (inactive) | GI50 [8]: 1.94 µM (inactive) | GI50 [9]: 1.28 µM (inactive) | GI50 [10]: 1.71 µM (inactive) | GI50 [20]: 1.53 µM (inactive) | GI50 [11]: 4.73 µM (inactive) | GI50 [12]: 1.91 µM (inactive) | GI50 [13]: 1.64 µM (inactive) | GI50 [14]: 6.89 µM (inactive) | GI50 [15]: 1.74 µM (inactive) | GI50 [16]: 1.53 µM (inactive) | GI50 [18]: 1.76 µM (inactive) | GI50 [19]: 1.8 µM (inactive)
